Data: patent US20230190643A1, “IMPLANT FOR TREATMENT OF AN OCULAR CONDITION” (Allergan, Inc., priority 2015, published 2023)

Key:
GC receptor = target: T1, GC receptor (Homo sapiens, UniProt P04150); conditions: GC receptor-binding (Tajika 2011b); cited from earlier work
T1 sequence (P04150 1-777): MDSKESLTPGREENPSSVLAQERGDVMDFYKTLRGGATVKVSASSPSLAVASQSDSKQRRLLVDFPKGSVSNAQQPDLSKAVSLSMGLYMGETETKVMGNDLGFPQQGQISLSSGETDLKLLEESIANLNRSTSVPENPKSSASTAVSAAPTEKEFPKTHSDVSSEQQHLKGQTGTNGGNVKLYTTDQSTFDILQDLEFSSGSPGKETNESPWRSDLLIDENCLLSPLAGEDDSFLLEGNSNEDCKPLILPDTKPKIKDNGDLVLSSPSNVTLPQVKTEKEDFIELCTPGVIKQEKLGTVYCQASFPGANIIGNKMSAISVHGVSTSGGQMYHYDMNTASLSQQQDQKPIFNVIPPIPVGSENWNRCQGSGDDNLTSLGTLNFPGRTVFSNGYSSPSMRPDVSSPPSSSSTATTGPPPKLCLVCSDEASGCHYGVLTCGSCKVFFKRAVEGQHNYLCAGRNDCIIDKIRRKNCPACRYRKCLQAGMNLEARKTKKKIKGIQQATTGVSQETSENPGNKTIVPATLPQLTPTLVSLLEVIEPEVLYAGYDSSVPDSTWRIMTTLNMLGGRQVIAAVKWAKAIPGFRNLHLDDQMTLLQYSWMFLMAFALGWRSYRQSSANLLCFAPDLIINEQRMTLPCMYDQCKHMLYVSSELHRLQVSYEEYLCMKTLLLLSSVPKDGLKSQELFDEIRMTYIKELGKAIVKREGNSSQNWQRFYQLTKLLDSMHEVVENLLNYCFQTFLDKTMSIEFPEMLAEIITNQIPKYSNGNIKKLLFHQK

[1] = Impact of gamma irradiation (46 kGy) on difluprednate assay of implant formulations; assay type: physicochemical
Description: Terminal moist heat sterilization is not a viable method due to the fact that ENV905 is a solid dosage form designed to disintegrate in aqueous environments. Therefore, studies to evaluate gamma irradiation were conducted on early ENV905 formulations to determine if ionizing radiation was a viable option for a terminally sterilized drug product. ENV905 implants were exposed to gamma irradiation with a dose of 46 kGy per ISO 11137-2:2012 (Sterilization of Health Care Products—Radiation—Part 2: Establishing the Sterilization Dose). The implant formulations used for these studies consisted of a blend of difluprednate and PEGs.
Implants were individually packaged in HPLC vials with air headspace and polytetrafluoroethylene (PTFE)-lined screw caps. Ten individual implants (n=10) were tested for difluprednate assay.

Ames test = conditions: cited from earlier work
CHL/IU = conditions: cited from earlier work
mice = conditions: cited from earlier work
male and female rats = conditions: subcutaneous up to 10 μg/kg/day prior to and during mating; cited from earlier work
rodents and non-rodents = conditions: consistent between species; cited from earlier work
rabbits = conditions: subcutaneous during organogenesis, cited from earlier work

Compound	Ki (GC receptor) [nM]	Degradation ([1]; Radiation Dose 46 kGy) [% Area]	Difluprednate Assay ([1]; Radiation Dose 46 kGy) [% Area]	Difluprednate Assay ([1]; Radiation Dose None) [% Area]	genotoxicity in vitro in the Ames test (Ames test)	genotoxicity in cultured mammalian cells CHL/IU (CHL/IU)	in vivo micronucleus test (mice)	fertility (male and female rats)	no-observed-effect-level (NOEL), subchronic and chronic toxicity tests (rodents and non-rodents) [µg/kg/day]	embryotoxicity and teratogenicity (rabbits; 1-10 μg/kg/day)	NOEL for embryotoxic and teratogenic effects (rabbits) [µg/kg/day]	teratogenic dose (rabbits) [µg/kg/day]
CCCC(=O)O[C@]1(C(=O)CO)CC[C@H]2[C@@H]3C[C@H](F)C4=CC(=O)C=C[C@]4(C)[C@@]3(F)[C@@H](O)C[C@@]21C [Desacetyl Difluprednate (DFB), 6α,9-difluoroprednisolone 17-butyrate]	0.061	–	–	–	–	–	–	–	–	–	–	–
CCCC(=O)O[C@]1(C(=O)COC(C)=O)CC[C@H]2[C@@H]3C[C@H](F)C4=CC(=O)C=C[C@]4(C)[C@@]3(F)[C@@H](O)C[C@@]21C [Difluprednate (DFBA), Difluprednate]	0.78	0.85	97.13	97.98	not genotoxic	not genotoxic	negative	did not impair fertility in either gender	1 to 1.25	embryotoxic (decrease in embryonic body weight and a delay in embryonic ossification) and teratogenic (cleft palate and skeletal anomalies)	1	10
